Ki data for 23 molecules are collected here from patent publication US10988459B2 (priority 2015, dated 2021).

Like-named read-outs stand apart in the source and are kept apart here.

The experiment deals with human RIP1 kinase domain (2-375) (Homo sapiens (Human), UniProt Q13546). The experiment in a line: biochemical. The following applies: 50 uM ATP. It is filed as biochemical. In short, it runs like this: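 Ki^app comes from Morrison tight-binding fits of fractional activity versus compound concentration. Activity was read as ADP production, via tracer displacement lowering fluorescence polarization (633 nm laser). Conditions: 2 h, 50 nM insect-cell-expressed enzyme, 50 uM ATP, 30 mM MgCl2, 1 mM DTT, 0.5% DMSO, pH 7.5 Hepes.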
human RIP1 kinase domain (2-375), sequence (Q13546 2-375): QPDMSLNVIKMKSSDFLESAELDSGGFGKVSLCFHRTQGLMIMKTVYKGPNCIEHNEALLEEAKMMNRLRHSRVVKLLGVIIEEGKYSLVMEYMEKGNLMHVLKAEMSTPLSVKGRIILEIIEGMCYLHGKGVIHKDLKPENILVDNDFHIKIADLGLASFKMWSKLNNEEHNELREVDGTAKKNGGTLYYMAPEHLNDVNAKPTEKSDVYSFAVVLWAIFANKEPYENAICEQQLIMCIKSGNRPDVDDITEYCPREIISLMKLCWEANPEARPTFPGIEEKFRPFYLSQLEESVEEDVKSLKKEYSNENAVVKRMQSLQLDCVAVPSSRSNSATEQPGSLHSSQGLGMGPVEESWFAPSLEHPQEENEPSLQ

The mark [1] stands for this setting: tight-binding apparent inhibition constant, human RIP1 kinase domain (2-375) 50 nM, 2 hours, read-out: Ki.
Where [2] appears, read: human RIP1 kinase domain (2-375), Transcreener ADP assay, 2 hours incubation, read-out: RIP1 Ki.
The mark [3] stands for this setting: human RIP1 kinase domain (2-375), 2 hours incubation, Transcreener ADP assay, read-out: RIP1 Ki.
The mark [4] stands for this setting: Table 5, apparent Ki (Morrison tight-binding fit), 50 nM RIP1 kinase domain, 2 hours incubation, read-out: Ki.
Setting [5] is: Table 1, apparent Ki (Morrison tight-binding fit), 50 nM RIP1 kinase domain, 2 hours incubation, read-out: RIP1 Ki.

As to `CN1C(=O)[C@@H](NC(=O)c2nc3cccc(C4=CCOCC4)n3n2)CCn2nccc21` [Example 395, (S)-5-(3,6-dihydro-2H-pyran-4-yl)-N-(4-methyl-5-oxo-5,6,7,8-tetrahydro-4H-pyrazolo[1,5-a][1,3]diazepin-6-yl)-[1,2,4]triazolo[1,5-a]pyridine-2-carboxamide], the Ki under setting [1] was 104 nM.
Turning to `Cc1cc2n(n1)CCC(NC(=O)c1ncn(Cc3ccc(F)cc3)n1)C(=O)N2C` (centres unmarked) [Example 268, N-(2,4-dimethyl-5-oxo-5,6,7,8-tetrahydro-4H-pyrazolo[1,5-a][1,3]diazepin-6-yl)-1-(4-fluorobenzyl)-1H-1,2,4-triazole-3-carboxamide], the Ki under setting [2] amounted to 97.7 nM.
Take `Cc1ncn2c1N(C)C(=O)[C@H](NC(=O)c1ncn(Cc3cc(F)ccc3F)n1)CC2` [Example 504, 1-[(2,5-difluorophenyl)methyl]-N-(3R)-1,9-dimethyl-2-oxo-4,5-dihydro-3H-imidazo[1,5-a][1,3]diazepin-3-yl-1,2,4-triazole-3-carboxamide]: the Ki under setting [1] is 50 nM.
On to `CN1C(=O)[C@@H](NC(=O)c2nc3n(n2)[C@H](c2ccccc2F)CC3)COc2ccccc21` [Example 467, (S)-5-(2-fluorophenyl)-N—((S)-5-methyl-4-oxo-2,3,4,5-tetrahydrobenzo[b][1,4]oxazepin-3-yl)-6,7-dihydro-5H-pyrrolo[1,2-b][1,2,4]triazole-2-carboxamide], for which the Ki under setting [1] came out at 57 nM.
On to `CN1C(=O)[C@@H](NC(=O)c2ncn3ccc(C(F)(F)F)nc23)COc2ccccc21` [Example 193, (S)—N-(5-methyl-4-oxo-2,3,4,5-tetrahydrobenzo[b][1,4]oxazepin-3-yl)-2-(trifluoromethyl)imidazo[1,5-a]pyrimidine-8-carboxamide], for which, under setting [3], the Ki came out at 57.5 nM.
For the molecule `CN1C(=O)[C@@H](NC(=O)c2n[nH]c3c2CC(c2ccc(F)cc2F)OC3)COc2ccccc21` (stereo partly drawn) [Example 207, 5-(2,4-difluorophenyl)-N—((S)-5-methyl-4-oxo-2,3,4,5-tetrahydrobenzo[b][1,4]oxazepin-3-yl)-1,4,5,7-tetrahydropyrano[3,4-c]pyrazole-3-carboxamide], the Ki under setting [3] was 61.7 nM.
As for `CC(C)c1cccc2nc(C(=O)N[C@H]3COc4ccccc4N(C)C3=O)nn12` [Example 406, (S)-5-isopropyl-N-(5-methyl-4-oxo-2,3,4,5-tetrahydrobenzo[b][1,4]oxazepin-3-yl)-[1,2,4]triazolo[1,5-a]pyridine-2-carboxamide], the Ki under setting [1] was found to be 4.72 nM.
`CN1C(=O)[C@H](NC(=O)c2ncn(Cc3c(F)cccc3F)n2)CCn2cncc21` [Example 600, 1-[(2,6-difluorophenyl)methyl]-N-[(3R)-1-methyl-2-oxo-4,5-dihydro-3H-imidazo[1,5-a][1,3]diazepin-3-yl]-1,2,4-triazole-3-carboxamide]: the Ki under setting [1] came to 50 nM.
`COC1CN(Cc2cc3n(n2)CC[C@H](NC(=O)c2ncn(Cc4ccccc4)n2)C(=O)N3C)C1` [Example 781, (S)-1-benzyl-N-(2-((3-methoxyazetidin-1-yl)methyl)-4-methyl-5-oxo-5,6,7,8-tetrahydro-4H-pyrazolo[1,5-a][1,3]diazepin-6-yl)-1H-1,2,4-triazole-3-carboxamide]: the Ki under setting [4] turned out to be 172 nM.
For the molecule `CN1C(=O)C(NC(=O)c2nnc(Cc3ccccc3)[nH]2)CCn2nc3c(c21)CSC3` (centres unmarked) [Example 145, 5-benzyl-N-(1-methyl-2-oxo-1,2,3,4,5,10-hexahydro-8H-thieno[3′,4′:3,4]pyrazolo[1,5-a][1,3]diazepin-3-yl)-4H-1,2,4-triazole-3-carboxamide], under setting [3], the Ki was 78.6 nM.
As for `CCC[C@H]1CCCc2nc(C(=O)N[C@H]3COc4cc(C)cc(F)c4NC3=O)nn21` (single isomer, unassigned) [Example 439], the Ki under setting [1] was 6.62 nM.
Consider `C[C@@H]1CCc2noc(C(=O)N[C@H]3COc4ccccc4N(C)C3=O)c2C1` [Example 71, (R)-5-methyl-N-((S)-5-methyl-4-oxo-2,3,4,5-tetrahydrobenzo[b][1,4]oxazepin-3-yl)-4,5,6,7-tetrahydrobenzo[c]isoxazole-3-carboxamide], for which, under setting [5], the Ki is 19.2 nM.
In the case of `Cc1cc2n(n1)CC[C@H](NC(=O)c1ncn(Cc3cccnc3C)n1)C(=O)N2C` [Example 664, 1-[(2-methyl-3-pyridyl)methyl]-N-(6S)-2,4-dimethyl-5-oxo-7,8-dihydro-6H-pyrazolo[1,5-a][1,3]diazepin-6-yl-1,2,4-triazole-3-carboxamide], under setting [1], the Ki amounted to 730 nM.
For the molecule `CN1C(=O)[C@@H](NC(=O)c2ncn(Cc3ccccc3C(F)(F)F)n2)CCn2nccc21` [Example 583, N-(6S)-4-methyl-5-oxo-7,8-dihydro-6H-pyrazolo[1,5-a][1,3]diazepin-6-yl]-1-[[2-(trifluoromethyl)phenyl]methyl-1,2,4-triazole-3-carboxamide], under setting [1], the Ki is 24 nM.
Regarding `CN1C(=O)[C@@H](NC(=O)c2nc3n(n2)[C@@H](c2ccccc2F)CC3)COc2ccccc21` [Example 468, (R)-5-(2-fluorophenyl)-N—((S)-5-methyl-4-oxo-2,3,4,5-tetrahydrobenzo[b][1,4]oxazepin-3-yl)-6,7-dihydro-5H-pyrrolo[1,2-b][1,2,4]triazole-2-carboxamide], under setting [1], the Ki was 4 nM.
Take `CN1C(=O)[C@@H](NC(=O)c2nc3n(n2)CCN[C@@H]3c2ccccc2)COc2ccccc21` (single isomer, unassigned) [Example 729]: the Ki under setting [4] was found to be 74 nM.
Turning to `CCC[C@H]1CCCc2nc(C(=O)N[C@H]3COc4cc(F)cc(F)c4NC3=O)nn21` (single isomer, unassigned) [Example 446], under setting [1], the Ki is 7.06 nM.
As to `CN1C(=O)[C@@H](NC(=O)c2nc3n(n2)CCC32CCOC2)COc2ccccc21` (stereo partly drawn) [Example 645, N-[(3S)-5-methyl-4-oxo-2,3-dihydro-1,5-benzoxazepin-3-yl]spiro[5,6-dihydropyrrolo[1,2-b][1,2,4]triazole-7,3′-tetrahydrofuran]-2-carboxamide], the Ki under setting [1] stood at 1200 nM.
As to `CN1C(=O)[C@@H](NC(=O)c2cc3c(cn2)COC3(C)C2CC2)COc2ccccc21` (stereo partly drawn) [Example 267, 1-cyclopropyl-1-methyl-N—((S)-5-methyl-4-oxo-2,3,4,5-tetrahydrobenzo[b][1,4]oxazepin-3-yl)-1,3-dihydrofuro[3,4-c]pyridine-6-carboxamide], the Ki under setting [2] turned out to be 37.4 nM.
Turning to `CN1C(=O)[C@@H](NC(=O)c2ncn3c2CC(C(F)(F)F)CC3)COc2ccccc21` (stereo partly drawn) [Example 38, N-[(3S)-5-methyl-4-oxo-2,3-dihydro-1,5-benzoxazepin-3-yl]-7-(trifluoromethyl)-5,6,7,8-tetrahydroimidazo[1,5-a]pyridine-1-carboxamide], under setting [5], the Ki is 87.4 nM.
For `CC[C@H]1CCc2nc(C(=O)N[C@H]3COc4ccccc4N(C)C3=O)nn21` (single isomer, unassigned) [Example 358], under setting [1], the Ki came to 9 nM.
With `Cc1cc(F)c2c(c1)OC[C@H](NC(=O)c1nc3n(n1)[C@H](C(F)(F)F)CC3)C(=O)N2` [Example 347, (5S)—N-[(3S)-6-fluoro-8-methyl-4-oxo-3,5-dihydro-2H-1,5-benzoxazepin-3-yl]-5-(trifluoromethyl)-6,7-dihydro-5H-pyrrolo[1,2-b][1,2,4]triazole-2-carboxamide], the Ki under setting [1] amounted to 4.91 nM.
As for `CN1C(=O)[C@@H](NC(=O)c2cn3c(C(F)(F)F)cccc3n2)COc2ccccc21` (single isomer, unassigned) [Example 792], the Ki under setting [4] is 70 nM.
